For 24 molecules, IC50 results are on record in patent US8871767B2, “2-arylimidazo[1,2-B]pyridazine, 2-phenylimidazo[1,2-A]pyridine, and 2-phenylimidazo[1,2-A]pyrazine derivatives” (Hengrui (USA) Ltd., priority 2010, dated 2014).

In assay [1] the test system is Hedgehog pathway activation on 10T1/2/Smo#3 cells (C3H10T1/2 cells transfected with human Smoothened receptor). Kind of assay: Hedgehog pathway activation on 10T1/2/Smo#3 cells measured by ALP activity. The class given is cell-based. The following applies: Mus musculus, C3H 10T1/2, 10T1/2/Smo#3 cells. A digest of the protocol:
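Inhibition of alkaline phosphatase induction, read fluorometrically from 4-methylumbelliferyl phosphate conversion, gave IC50 values; CellTiter-Blue tracked viability in parallel. Cells were the human Smo-transfected 10T1/2/Smo#3 pool, stimulated by 10-20% hShh conditioned medium or the Smo agonist SAG (500 nM).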

Assay [2] relates to Hedgehog pathway activation (GLi-luciferase reporter) in Shh Light II reporter cells. Kind of assay: Hedgehog pathway activation on Shh Light II reporter cells measured by luciferase activity. The class given is cell-based. Conditions: Mus musculus, Shh Light II. A digest of the protocol: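 Shh Light II reporter cells carrying a hedgehog-responsive GLi-luciferase reporter were stimulated either with 500 nM SAG, a direct Smoothened agonist, or with conditioned media containing human Sonic Hedgehog (hShh). Test compounds were evaluated for blocking this pathway activation, quantified by luciferase activity. Cell viability was monitored in parallel with the Celltiter-Blue® assay.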

[3] abbreviates: hShh activation, ALP activity, read-out: 10T1/2/Smo#3 ALP activity (hShh Activation).
Setting [4] is: measured by ALP activity, read-out: ALP (IC50, inhibition of Hedgehog pathway activation).
Where [5] appears, read: SAG activation (500 nM SAG), read-out: Shh Light II luciferase activity (SAG activation).
Setting [6] is: hShh activation, read-out: Shh (IC50, inhibition of Hedgehog pathway activation).
Where [7] appears, read: hShh activation, read-out: Shh Light II luciferase activity (hShh activation).

Like-named read-outs stand apart in the source and are kept apart here. Bounds are passed on as bounds.

Turning to `Cc1ccc(-c2cn3nc(-c4cccnc4C(F)(F)F)ccc3n2)cc1NC(=O)C(C)(C)C` [Example 284, N-(2-methyl-5-(6-(2-(trifluoromethyl)pyridin-3-yl)imidazo[1,2-b]pyridazin-2-yl)phenyl)pivalamide], the IC50 in assay [1] (setting [3]) was less than 0.3 µM; in assay [1] (setting [4]), 0.029 µM; in assay [2] (setting [5]), less than 0.3 µM; in assay [2] (setting [6]), 0.057 µM; in assay [2] (setting [7]), less than 0.3 µM.

Turning to `CC1(C(=O)Nc2cc(-c3cn4nc(-c5cccnc5C(F)(F)F)ccc4n3)ccc2Cl)CC1` [Example 653, N-(2-chloro-5-(6-(2-(trifluoromethyl)pyridin-3-yl)imidazo[1,2-b]pyridazin-2-yl)phenyl)-1-methylcyclopropanecarboxamide], the figures for the IC50 in assay [1] (setting [4]) and in assay [2] (setting [6]) were 0.08 µM and 0.01 µM, respectively.

Consider `O=C(CC(F)(F)F)Nc1cc(-c2cn3nc(-c4cccnc4C(F)(F)F)ccc3n2)ccc1Cl` [Example 675, N-(2-chloro-5-(6-(2-(trifluoromethyl)pyridin-3-yl)imidazo[1,2-b]pyridazin-2-yl)phenyl)-3,3,3-trifluoropropanamide], for which the IC50 stood at 0.777 µM in assay [1] (setting [4]) and 0.099 µM in assay [2] (setting [6]).

Consider `Cc1c(-c2ccccc2)nc2ccc(N3CCN(Cc4cccc(C(F)(F)F)c4)CC3)nn12` [Example 165, 3-methyl-2-phenyl-6-(4-(3-(trifluoromethyl)benzyl)piperazin-1-yl)imidazo[1,2-b]pyridazine], for which the IC50 is more than 10 µM in assay [1] (setting [4]) and 0.89 µM in assay [2] (setting [6]).

Turning to `CC(O)COc1ccc2nc(-c3ccc(C(F)(F)F)c(NC(=O)C(C)(C)C)c3)cn2n1` (stereo not drawn) [Example 376, N-(5-(6-(2-hydroxypropoxy)imidazo[1,2-b]pyridazin-2-yl)-2-(trifluoromethyl)phenyl)pivalamide], the IC50 in assay [1] (setting [4]) was determined as 0.874 µM; in assay [2] (setting [6]), 0.616 µM.

Take `Cc1ccc(-c2cn3nc(-c4cccnc4C(F)(F)F)ccc3n2)cc1NC(=O)c1cccc(C=CC(=O)Nc2ccccc2N)c1` [compound 623, 3-(3-((2-aminophenyl)amino)-3-oxoprop-1-en-1-yl)-N-(2-methyl-5-(6-(2-(trifluoromethyl)pyridin-3-yl)imidazo[1,2-b]pyridazin-2-yl)phenyl)benzamide]: the IC50 is less than 0.3 µM in assay [1] (setting [3]); 0.145 µM in assay [1] (setting [4]); 0.3 to 3 µM in assay [2] (setting [5]); 0.198 µM in assay [2] (setting [6]); less than 0.3 µM in assay [2] (setting [7]).

As to `CC(C)OC(=O)Nc1cc(-c2cn3nc(-c4cccnc4C(F)(F)F)ccc3n2)ccc1Cl` [Example 668, isopropyl 2-chloro-5-(6-(2-(trifluoromethyl)pyridin-3-yl)imidazo[1,2-b]pyridazin-2-yl)phenylcarbamate], the figures for the IC50 in assay [1] (setting [4]) and in assay [2] (setting [6]) were 0.631 µM and 0.283 µM, respectively.

`COc1ccc2nc(-c3ccc(C)c(NC(=O)C(C)(C)C)c3)c(-c3ccc(F)cc3)n2n1` [Example 114, N-(5-(3-(4-fluorophenyl)-6-methoxyimidazo[1,2-b]pyridazin-2-yl)-2-methylphenyl)pivalamide]: the IC50 was 3 to 30 µM in assay [1] (setting [3]); more than 10 µM in assay [1] (setting [4]); 3 to 30 µM in assay [2] (setting [5]); 7.67 µM in assay [2] (setting [6]); 3 to 30 µM in assay [2] (setting [7]).

On to `CNC(=O)c1cccc(-c2ccc3nc(-c4ccc(C)c(NC(=O)C(C)(C)C)c4)cn3n2)c1` [Example 453, N-methyl-3-(2-(4-methyl-3-pivalamidophenyl)imidazo[1,2-b]pyridazin-6-yl)benzamide], for which the IC50 in assay [1] (setting [4]) is 0.751 µM; in assay [2] (setting [6]), 0.582 µM.

`Cc1ccc(-c2cn3nc(-c4ccc(C(=N)N)cc4C(F)(F)F)ccc3n2)cc1NC(=O)C(C)(C)C` [compound 543, N-(5-(6-(4-carbamimidoyl-2-(trifluoromethyl)phenyl)imidazo[1,2-b]pyridazin-2-yl)-2-methylphenyl)pivalamide]: the IC50 worked out at 0.007 µM in assay [1] (setting [4]) and 0.004 µM in assay [2] (setting [6]).

With `Cc1ccc(-c2cn3nc(NC(=O)c4cccc(Br)c4)ccc3n2)cc1NC(=O)C(C)(C)C` [compound 594], the IC50 in assay [1] (setting [4]) worked out at 0.03 µM; in assay [2] (setting [6]) it was 0.02 µM.

With `CC(C)(C)C(=O)Nc1cc(-c2cn3nc(-c4cc(F)ccc4C(F)(F)F)ccc3n2)ccc1C(F)(F)F` [Example 291, N-(5-(6-(5-fluoro-2-(trifluoromethyl)phenyl)imidazo[1,2-b]pyridazin-2-yl)-2-(trifluoromethyl)phenyl)pivalamide], the values for the IC50 in assay [1] (setting [4]) and in assay [2] (setting [6]) were 0.325 µM and 0.289 µM, respectively.

On to `CC(C)(C)C(=O)Nc1cc(-c2cn3nc(N4CCC(F)(F)C4)ccc3n2)ccc1C(F)(F)F` [Example 236, N-(5-(6-(3,3-difluoropyrrolidin-1-yl)imidazo[1,2-b]pyridazin-2-yl)-2-(trifluoromethyl)phenyl)pivalamide], for which the results for the IC50 in assay [1] (setting [4]) and in assay [2] (setting [6]) were 0.1 µM and 0.289 µM, respectively.

As for `Cc1ccc(-c2cn3nc(-c4cc(Cl)cnc4F)ccc3n2)cc1NC(=O)C(C)(C)C` [Example 279, N-(5-(6-(5-chloro-2-fluoropyridin-3-yl)imidazo[1,2-b]pyridazin-2-yl)-2-methylphenyl)pivalamide], the IC50 is 0.129 µM in assay [1] (setting [4]) and 0.282 µM in assay [2] (setting [6]).

On to `CCOc1ccc2nc(-c3ccc(C(F)(F)F)c(NC(=O)c4ccccc4)c3)cn2n1` [Example 191, N-(5-(6-ethoxyimidazo[1,2-b]pyridazin-2-yl)-2-(trifluoromethyl)phenyl)benzamide], for which the figures for the IC50 in assay [1] (setting [4]) and in assay [2] (setting [6]) were 1.57 µM and 0.579 µM, respectively.

Take `Cc1ccc(-c2cn3nc(NCc4ccc(C(=O)NOC5CCCCO5)cc4)ccc3n2)cc1NC(=O)C(C)(C)C` (stereo not drawn) [compound 600]: the IC50 is more than 10 µM in assay [1] (setting [4]) and 0.13 µM in assay [2] (setting [6]).

`CC(C)(C)C(=O)Nc1cc(-c2cn3nc(-c4cccnc4C(F)(F)F)ccc3n2)ccc1Cl` [Example 642, N-(2-chloro-5-(6-(2-(trifluoromethyl)pyridin-3-yl)imidazo[1,2-b]pyridazin-2-yl)phenyl)pivalamide]: the IC50 in assay [1] (setting [3]) was less than 0.3 µM; in assay [1] (setting [4]), 0.006 µM; in assay [2] (setting [5]) it was less than 0.3 µM; in assay [2] (setting [6]), 0.013 µM; in assay [2] (setting [7]) it was less than 0.3 µM.

Regarding `Cc1c(-c2ccccc2)nc2ccc(N3CCN(C(=O)Cc4ccccc4)CC3)nn12` [Example 155, 1-(4-(3-methyl-2-phenylimidazo[1,2-b]pyridazin-6-yl)piperazin-1-yl)-2-phenylethanone], the IC50 in assay [1] (setting [3]) is 0.3 to 3 µM; in assay [1] (setting [4]), 1.27 µM; in assay [2] (setting [5]), less than 0.3 µM; in assay [2] (setting [6]), 2.1 µM; in assay [2] (setting [7]) it was 0.3 to 3 µM.

In the case of `CCOC(=O)CCCCCCOc1cccc(-c2ccc3nc(-c4ccc(C)c(NC(=O)C(C)(C)C)c4)cn3n2)c1C(F)(F)F` [Example 423, ethyl 7-(3-(2-(4-methyl-3-pivalamidophenyl)imidazo[1,2-b]pyridazin-6-yl)-2-(trifluoromethyl)phenoxy)heptanoate], the IC50 in assay [1] (setting [4]) is 0.265 µM; in assay [2] (setting [6]), 1.56 µM.

As for `Cc1ccc(-c2cn3nc(-c4ccc(-c5ccc(Cl)nc5)nc4)ccc3n2)cc1NC(=O)C(C)(C)C` [Example 401, N-(5-(6-(6′-chloro-2,3′-bipyridin-5-yl)imidazo[1,2-b]pyridazin-2-yl)-2-methylphenyl)pivalamide], the figures for the IC50 in assay [1] (setting [4]) and in assay [2] (setting [6]) were 0.234 µM and 0.4 µM, respectively.

For `Cc1cccnc1-c1ccc2nc(-c3ccc(C(F)(F)F)c(NC(=O)C(C)(C)C)c3)cn2n1` [Example 152, N-(5-(6-(3-methylpyridin-2-yl)imidazo[1,2-b]pyridazin-2-yl)-2-(trifluoromethyl)phenyl)pivalamide], the IC50 was 0.59 µM in assay [1] (setting [4]) and 0.314 µM in assay [2] (setting [6]).

With `CC(C)(C)C(=O)Nc1cc(-c2cn3nc(-c4ccccn4)ccc3n2)ccc1C(F)(F)F` [Example 141, N-(5-(6-(pyridin-2-yl)imidazo[1,2-b]pyridazin-2-yl)-2-(trifluoromethyl)phenyl)pivalamide], the IC50 in assay [1] (setting [3]) is 3 to 30 µM; in assay [1] (setting [4]), 9.06 µM; in assay [2] (setting [5]), less than 0.3 µM; in assay [2] (setting [6]), 0.26 µM; in assay [2] (setting [7]) it was less than 0.3 µM.

With `CC(C)(C)C(=O)Nc1cc(-c2cn3nc(N4CCS(=O)(=O)CC4)ccc3n2)ccc1C(F)(F)F` [Example 287, N-{5-[6-(1,1-dioxidothiomorpholin-4-yl)imidazo[1,2-b]pyridazin-2-yl]-2-(trifluoromethyl)phenyl}-2,2-dimethylpropanamide], the IC50 in assay [1] (setting [4]) is 0.462 µM; in assay [2] (setting [6]), 0.491 µM.

In the case of `Cc1ccc(-c2cn3nc(N4CCC(C(N)=NO)CC4)ccc3n2)cc1NC(=O)C(C)(C)C` [compound 566], the IC50 in assay [1] (setting [4]) was 0.371 µM; in assay [2] (setting [6]) it was 0.285 µM.
